Values after ≈ are worked out from the molar mass of the structure shown.
Key:
[1] = test system: Mannheimia haemolytica, 3 isolates; assay: MIC against Mannheimia haemolytica isolates; type: cell-based; details: Mannheimia haemolytica, 3ISOLATES, 3 Mannheimia haemolytica isolates; broth dilution method; read-out: Range of minimum inhibitory concentrations (MIC)
Experimental: (§1) Minimal inhibitory concentrations (MICs) were determined against the most prevalent pathogens in cattle (Mannheimia Haemolytica, 3 isolates) and swine (A. pleuropneumoniae, 6 isolates). In addition the activity of several compounds was tested against two bacterial species, i.e. Mannheimia haemolytica and Actinobacillus pleuropneumoniae, which are considered as the most important bacterial respiratory pathogens in cattle and swine, respectively.

[2] = test system: Actinobacillus pleuropneumoniae, 6 isolates; assay: MIC against Actinobacillus pleuropneumoniae isolates; type: cell-based; details: 6ISOLATES; 6 Actinobacillus pleuropneumoniae isolates; broth dilution method; read-out: Range of minimum inhibitory concentrations (MIC)
Experimental: as §1

Staphylococcus aureus = assay: MIC50 mastitis pathogens, broth dilution; type: cell-based; details: S. aureus, 7 to 12 isolates, 24 hours
Description: (§2) The activity of several compounds against bacterial mastitis pathogens has been tested under in-vitro conditions according to a recognized procedure (CLSI, document […]-A3, 2008). In this test 7 to 12 representative bacteria belonging to 7 bacterial species that typically cause mastitis in dairy cattle, i.e. Staphylococcus aureus, coagulase negative staphylococci (CNS), Streptococcus uberis, Streptococus dysgalactiae, Streptococcus agalactiae, Arcanobacterium pyogenes and Escherichia coli, were exposed to two-fold dilutions of the test compounds. After 24 hours of incubation the concentration that inhibited the growth of this bacteria was determined. It could be shown that all these bacterial mastitis pathogens were highly susceptible to the test compounds.

Streptococcus agalactiae = assay: MIC50 mastitis pathogens, broth dilution; type: cell-based; details: Str agalactiae, 7 to 12 isolates, 24 hours
Description: as §2

Streptococcus uberis = assay: MIC50 mastitis pathogens, broth dilution; type: cell-based; details: Str uberis, 7 to 12 isolates, 24 hours
Description: as §2

Arcanobacterium pyogenes = assay: MIC50 mastitis pathogens, broth dilution; type: cell-based; details: Trueperella pyogenes, A. pyogenes, 7 to 12 isolates, 24 hours
Description: as §2

[3] = test system: coagulase negative staphylococci (CNS); assay: MIC50 mastitis pathogens, broth dilution; type: cell-based; details: 7 to 12 isolates, 24 hours
Description: as §2

[4] = test system: Streptococus dysgalactiae; assay: MIC50 mastitis pathogens, broth dilution; type: cell-based; details: Str dysgalactiae, 7 to 12 isolates, 24 hours
Description: as §2

Escherichia coli = assay: MIC50 mastitis pathogens, broth dilution; type: cell-based; details: E. coli, 7 to 12 isolates, 24 hours
Description: as §2

[5] = test system: S. aureus bacteria (strain Newbould); assay: Mouse mastitis model of infection; type: in vivo, mice; details: for mean S. aureus count in glands: 14 hours after application, untreated 8.64 log 10
Description: The clinical efficacy of compound YT709 against mastitis caused by S. aureus was shown in lactating mice according to a recognized published procedure (E. Brouillette, G. Grondin, C. Lefebvre, B. G. Talbot, F. Malouin, Mouse mastitis model of infection for antimicrobial compound efficacy studies against intracellular and extracellular forms of Staphylococcus aureus, Veterinary Microbiology, 101, (2004), 253-262). Into the glands of lactating mice S. aureus bacteria (strain Newbould) were instilled and allowed to multiply. Bacterium S. aureus Newbould is an isolate which was isolated from a clinical case of bovine mastitis and which also causes typical mastitis infection in dairy cattle upon experimental, intramammary infection. Four hours after the intramammary infection of lactating mice with S. aureus Newbould, compound YT709 was instilled into the infected glands. Different intramammary dosages of YT709 were tested and their efficacy compared to an infected, untreated control group. Fourteen hours after intramammary application of YT709, the glands of the treated and untreated mice were removed, homogenized and the number of S. aureus bacteria counted in 10-fold dilutions of the homogenized glands. The mean S. aureus count of 8 untreated glands was 10^8.64 (8.64 log 10) bacteria. The mean S. aureus count in 6 glands that had been treated with 200 microgram YT709 was 10^5.10 bacteria (5.10 log 10). […] The mean S. aureus count in the 5 glands that had been treated with 400 microgram YT709 was 10^2.34 bacteria (2.34 log 10).

[6] = test system: Bacillus subtilis ATCC6633; assay: Paper disc assay, Bacillus subtilis; type: cell-based; details: S
Experimental: (§3) (2) Antibacterial activities against other bacteria were determined with Micrococcus luteus ATCC9341 (1), Bacillus subtilis […] (s), Escherichia coli NIHJ (c), Xanthomonas campestris KB88 (X), Mucor racemosus IFO 4581 (Mu) and Candida albicans ATCC 64548 (Ca).
(§4) Bacillus subtilis ATCC6633 was incubated in Davis synthetic medium and then the seed broth was combined with the medium in the ratio of 1:99 to obtain a test plate. Micrococcus luteus ATCC9341, Escherichia coli NIHJ and Xanthomonas campestris KB88 were respectively incubated in Nutrient agar medium and inoculated at 0.2%, 0.5% and 1.0%. Mucor racemosus IFO 4581 and Candida albicans ATCC 64548 were respectively incubated in GY agar medium and then inoculated at 0.3% and 0.2%.
(§5) A paper disc (ADVANTEC, Φ:6 mm) was impregnated with a solution of test compound and dried under reduced pressure. The paper disc was put on the test plate and it was incubated for 24 hours at 37° C. After incubation, the inhibition zone diameter and clarity (A to E) were determined.

[7] = test system: M. hemolytica KB346 (Tilmicosin-low sensitivity strain); assay: Paper disc assay, M. hemolytica KB346; type: cell-based, Mannhemia hemolytica; details: 10 mg/6 mm disk; Table 5
Experimental: (1) Antibacterial activities against Mannheimia and Pasteurella were determined by the following steps: • 1) M. hemolytica KB345 (Tilmicosin-sensitivity strain) and M. hemolytica KB346 (Tilmicosin-low sensitivity strain) were provided. KB 345 strain stored at −80° C. was seeded to BHIB agar medium (10 mL) by using Microbank beads (Pro-Lab) and platinum nail. After statically incubating the KB 345 strain for 24 hours at 37° C., it was seeded to maintaining slant BHIB agar medium (7 mL) by using platinum loop, further statically incubated for 24 hours at 37° C. to obtain slant. One platinum loop of KB 345 strain stored at the slant was inoculated into a large test tube charged with BHIB liquid medium (10 mL) and then incubated for 24 hours at 37° C. with shaking. • 2) A paper disc (ADVANTEC, Φ:6 mm) was impregnated with a solution of test compound and dried under reduced pressure. • 3) To a melted BHIB agar medium was inoculated 1% of the broth obtained from step 1) above to prepare a test plate. After the medium set, the paper disc prepared in step 2) above was put on the plate and it was incubated at 37° C. • 4) After one day, the inhibition zone diameter and clarity (A to E) were determined. For KB346 strain, the same procedures were repeated.

Escherichia coli NIHJ = assay: Paper disc assay, Escherichia coli; type: cell-based; details: c
Experimental: as §3, §4, §5

[8] = test system: Micrococcus luteus ATCC9341; assay: Paper disc assay, Micrococcus luteus; type: cell-based; details: column 1
Experimental: as §3, §4, §5

[9] = test system: Xanthomonas campestris KB88; assay: Paper disc assay, Xanthomonas campestris; type: cell-based; details: X
Experimental: as §3, §4, §5

## CC[C@H]1OC(=O)C[C@@H](O)[C@H](C)[C@@H](O[C@@H]2OC(C)[C@@H](O)C(N(C)C)C2O)[C@@H](CCNCCn2cc(-c3ccc(-c4ccccc4)cc3)nn2)C[C@@H](C)C(=O)/C=C/C(C)=C/[C@@H]1CO (stereo partly drawn) [YT721]
[1]
  MIC: 1 to 4 µg/mL (≈ 1.18 to 4.73 µM)
[2]
  MIC: 8 µg/mL (≈ 9.46 µM)
Staphylococcus aureus
  MIC50: 0.5 µg/mL (≈ 0.591 µM)
Streptococcus agalactiae
  MIC50: 0.125 µg/mL (≈ 0.148 µM)
Streptococcus uberis
  MIC50: 0.12 µg/mL (≈ 0.142 µM)
Arcanobacterium pyogenes
  MIC50: 0.06 µg/mL (≈ 0.0709 µM)
[3]
  MIC50: 0.5 µg/mL (≈ 0.591 µM)
[4]
  MIC50: 0.25 µg/mL (≈ 0.295 µM)
Escherichia coli
  MIC50: 8 µg/mL (≈ 9.46 µM)

## CC[C@H]1OC(=O)C[C@@H](O)[C@H](C)[C@@H](O[C@@H]2OC(C)[C@@H](O)C(N(C)C)C2O)[C@@H](CCN(Cc2ccccc2)Cc2cn(-c3cnc4ccccc4c3)nn2)C[C@@H](C)C(=O)/C=C/C(C)=C/[C@@H]1CO (stereo partly drawn) [YT709]
[1]
  MIC: 2 to 4 µg/mL (≈ 2.23 to 4.46 µM)
[5]; 200 microgram intramammary
  reduction of number of bacteria vs untreated glands: about 3500 fold
[5]; 200 microgram intramammary, 6 glands
  mean S. aureus count in glands: 5.10 log 10
[5]; 400 microgram intramammary
  glands in which the infection was cleared: 2 out of 5
  reduction of number of bacteria vs untreated glands: about two million
[5]; 400 microgram intramammary, 5 glands
  mean S. aureus count in glands: 2.34 log 10
[2]
  MIC: 2 to 4 µg/mL (≈ 2.23 to 4.46 µM)
Staphylococcus aureus
  MIC50: ≤ 0.03 µg/mL
Streptococcus agalactiae
  MIC50: 0.06 µg/mL (≈ 0.0669 µM)
Streptococcus uberis
  MIC50: 0.06 µg/mL (≈ 0.0669 µM)
Arcanobacterium pyogenes
  MIC50: 0.008 µg/mL (≈ 0.00892 µM)
[3]
  MIC50: ≤ 0.03 µg/mL
[4]
  MIC50: 0.06 µg/mL (≈ 0.0669 µM)
Escherichia coli
  MIC50: 16 µg/mL (≈ 17.8 µM)

## CC[C@H]1OC(=O)C[C@@H](O)[C@H](C)[C@@H](O[C@@H]2OC(C)[C@@H](O)C(N(C)C)C2O)[C@@H](CCNCCn2cc(-c3cnc4ccccc4c3)nn2)C[C@@H](C)C(=O)/C=C/C(C)=C/[C@@H]1CO (stereo partly drawn) [YT732]
[1]
  MIC: 1 to 4 µg/mL (≈ 1.22 to 4.87 µM)
[2]
  MIC: 2 to 4 µg/mL (≈ 2.44 to 4.87 µM)
Staphylococcus aureus
  MIC50: 0.5 µg/mL (≈ 0.609 µM)
Streptococcus agalactiae
  MIC50: 0.03 µg/mL (≈ 0.0365 µM)
Streptococcus uberis
  MIC50: 0.03 µg/mL (≈ 0.0365 µM)
Arcanobacterium pyogenes
  MIC50: 0.008 µg/mL (≈ 0.00974 µM)
[3]
  MIC50: 0.25 µg/mL (≈ 0.304 µM)
[4]
  MIC50: 0.12 µg/mL (≈ 0.146 µM)
Escherichia coli
  MIC50: 8 µg/mL (≈ 9.74 µM)

## CC[C@H]1OC(=O)C[C@@H](O)[C@H](C)[C@@H](O[C@@H]2O[C@H](C)[C@@H](O)[C@H](N(C)C)[C@H]2O)[C@@H](CCN2C[C@H](C)C[C@H](C)C2)C[C@@H](C)C(=O)/C=C/C(C)=C/[C@@H]1CO[C@@H]1O[C@H](C)[C@@H](O)[C@@H](OC)[C@H]1OC [Tilmicosin, tilmicosin, reference compound]
[6]; 0.1 mg/6 mm disc
  Inhibition zone: 14 mm
[6]; 1 mg/6 mm disc
  Inhibition zone: 11 mm
[6]; 10 mg/6 mm disc
  Inhibition zone: 18 mm
[7]
  Inhibition zone: 11.0 mm
Escherichia coli NIHJ; 1 mg/6 mm disc
  Inhibition zone: 13 mm
Escherichia coli NIHJ; 10 mg/6 mm disc
  Inhibition zone: 20 mm
[8]; 0.1 mg/6 mm disc
  Inhibition zone: 12 mm
[8]; 1 mg/6 mm disc
  Inhibition zone: 19 mm
[8]; 10 mg/6 mm disc
  Inhibition zone: 27.5 mm
[9]; 0.1 mg/6 mm disc
  Inhibition zone: 12 mm
[9]; 1 mg/6 mm disc
  Inhibition zone: 20 mm
[9]; 10 mg/6 mm disc
  Inhibition zone: 30 mm

## CC[C@H]1OC(=O)C[C@@H](O)[C@H](C)[C@@H](O[C@@H]2O[C@H](C)[C@@H](O)[C@H](N(C)C)[C@H]2O)[C@@H](CCn2cc(-c3ccsc3)nn2)C[C@@H](C)C(=O)/C=C/C(C)=C/[C@@H]1CO[C@@H]1O[C@H](C)[C@@H](O)[C@@H](OC)[C@H]1OC [YT14, 20-(4-(thiophene-3-yl)-1H-1,2,3-triazol-1-yl)-20-deoxodesmycosin]
[6]; 0.1 mg/6 mm disc
  Inhibition zone: 8 mm
[6]; 1 mg/6 mm disc
  Inhibition zone: 11 mm
[6]; 10 mg/6 mm disc
  Inhibition zone: 15 mm
Escherichia coli NIHJ; 10 mg/6 mm disc
  Inhibition zone: 7 mm
[8]; 0.1 mg/6 mm disc
  Inhibition zone: 13.5 mm
[8]; 1 mg/6 mm disc
  Inhibition zone: 20.5 mm
[8]; 10 mg/6 mm disc
  Inhibition zone: 26.5 mm
[9]; 0.1 mg/6 mm disc
  Inhibition zone: 7 mm
[9]; 1 mg/6 mm disc
  Inhibition zone: 16 mm
[9]; 10 mg/6 mm disc
  Inhibition zone: 22 mm

From patent US9771389B2, “Tylosin derivatives and method for preparation thereof” (BAYER ANIMAL HEALTH GMBH, priority 2013, dated 2017)
